Experimental data: article PMC5131266 (Scientific Reports, 2016)

Tests used:
MPER-PDGFR = assay: Cell-lysate ELISA, MPER-PDGFR; format: binding, HIV-1; details: 293T cell lysates, 20 nM IgG or Fab, normalized to 20 nM 17/9 IgG
MPER-TM1 = assay: Cell-lysate ELISA, MPER-TM1; format: binding, HIV-1; details: 293T cell lysates, 20 nM IgG or Fab, normalized to 20 nM 17/9 IgG
HIV-1 = details: cited from earlier work
[1] = test system: simian immunodeficiency virus-HIV chimera; details: rhesus macaques; cited from earlier work
Text: (§1) The 10E8 antibody achieves potent and broad HIV-1 neutralization by targeting the membrane-proximal external region of gp41 (MPER)[1][2]. […] The exceptionally high degree of conservation of the MPER sequence[4][5] justifies immunotherapeutic approaches based on the 10E8 antibody.

[2] = test system: SIVs that infect chimpanzees and gorillas; details: cited from earlier work
Text: as §1

[3] = target: HIV-1 Env of JRCSF on pseudovirus particles (HIV-1 group M subtype B, isolate JRCSF, UniProt P20871); assay: far-Western, overlay or dot blot; dot blot: decreasing amounts of PsV spotted on nitrocellulose, probed with Fab (0.2 ug/ml) in 5% milk in PBS, 1 h, room temperature; details: one partner purified

Molecule	binding to MPER-PDGFR (MPER-PDGFR)	binding to MPER-TM1 (MPER-TM1)	mean IC50 (HIV-1)	protection against infection [1]	neutralization potency [2]	binding result [3]
10E8 IgG: broadly neutralizing anti-HIV-1 gp41 MPER antibody 10E8, IgG	poor ligand	bind tightly	below 1 μg/mL	complete protection	nanomolar potency	
10E8 WT Fab: recombinant unmodified Fab of anti-HIV-1 gp41 MPER antibody 10E8	poor ligand	comparable degree of binding				
10E8 Fab (Fab, V domains shown, also called Fab 10E8; WT) VH: EVQLVESGGGLVKPGGSLRLSCSASGFDFDNAWMTWVRQPPGKGLEWVGRITGPGEGWSVDYAAPVEGRFTISRLNSINFLYLEMNNLRMEDSGLYFCARTGKYYDFWSGYPPGEEYFQDWGRGTLVTVSS VL: SYELTQETGVSVALGRTVTITCRGDSLRSHYASWYQKKPGQAPILLFYGKNNRPSGVPDRFSGSASGNRASLTISGAQAEDDAEYYCSSRDKSGSRLSVFGGGTKLTVL						binds
